{"source": "the NIST ThermoML archive (doi:10.1021/acs.jced.8b00400)", "assay": "osmotic coefficient (dimensionless); mn = molality of the nth substance listed, in mol/kg", "settings": "298.15 K, 100 kPa, Liquid, isopiestic method", "note": "Numbers after ± are expanded uncertainties.", "data": [{"compound": "[Cl-].[K+]", "note": "[potassium chloride] + O", "values": [{"measurement": "osmotic coefficient", "setting": "m1 = 0.9956", "result": "0.901 ± 0.011"}, {"measurement": "osmotic coefficient", "setting": "m1 = 2.002", "result": "0.916 ± 0.011"}]}, {"compound": "[Na+].[OH-]", "note": "[sodium hydroxide] + O", "values": [{"measurement": "osmotic coefficient", "setting": "m1 = 1.004", "result": "0.9589 ± 0.0089"}, {"measurement": "osmotic coefficient", "setting": "m1 = 2.01", "result": "1.032 ± 0.0089"}]}]}
